Data as given in patent EP0977755B1, “HETEROCYCLIC COMPOUNDS AND THEIR PREPARATION AND USE” (NOVO NORDISK A/S, priority 1997, dated 1998).
Counter-ions that a name gives are not always drawn. Like-named read-outs stand apart in the source and are kept apart here.

Biological target: T1, m1 muscarinic receptor (Rattus norvegicus, UniProt P08482)
T1 construct: expressed in transfected cells; host or cells: A9 L cells (mouse fibroblast line)
T1 sequence (P08482 1-460): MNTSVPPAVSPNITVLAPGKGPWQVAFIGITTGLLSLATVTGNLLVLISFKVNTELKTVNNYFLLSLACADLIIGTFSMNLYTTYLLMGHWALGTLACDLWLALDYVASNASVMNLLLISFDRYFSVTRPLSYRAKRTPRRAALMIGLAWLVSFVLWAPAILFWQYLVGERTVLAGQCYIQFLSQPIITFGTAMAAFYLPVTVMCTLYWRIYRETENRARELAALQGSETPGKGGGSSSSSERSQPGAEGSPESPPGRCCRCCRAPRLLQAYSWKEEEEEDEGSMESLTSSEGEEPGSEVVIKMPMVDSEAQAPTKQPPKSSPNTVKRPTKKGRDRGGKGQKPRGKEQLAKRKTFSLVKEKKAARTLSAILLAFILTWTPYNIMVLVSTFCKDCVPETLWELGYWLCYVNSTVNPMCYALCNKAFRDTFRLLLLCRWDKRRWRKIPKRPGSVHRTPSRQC
Assay: IP hydrolysis in A9 L cells cloned with the genetic m1 muscarinic receptor
Type: cell-based, human and rat
Details: for Emax: A9L-m1, 0.75 h, percentage of total [3H]IP accumulated in the presence of 100 µM carbachol stimulation, 37°C for 45 min, read-out: % PI (efficacy); for EC50: IP hydrolysis, seven point curves, three separate experiments
Experimental: IP hydrolysis in A9 L cells cloned with the genetic m, muscarinic receptor: A9 L cells transfected with human and rat m, muscarinic receptors (Dörje et al., 1991; Jones et al., 1988), were cultured to confluence in 75-ml flasks containing Dulbecco's modified essential media. Cells were prelabeled with 1 µCi/ml of myo(2-[^3H]inositol (Amersham Inc., 16.3 Ci/mmol) for 48 hr before assaying. On the day of assay, cells were detached using a 30-sec exposure to 0.25% trypsin in 1 mM EDTA. The cells were collected by centrifugation (300 x g for 5 min) and resuspended in oxygenated HEPES buffer containing 10 mM LiCl (NaCl 142 mM, KCl 5.6 mM, CaCl2 2.2 mM, MgCl2 1 mM, NaHCO3 3.6 mM, D-glucose 5.6 mM and Na^+ HEPES 30 mM, pH 7.4). Cells were incubated at 37°C for 45 min in the presence of varying concentrations of test compounds. Total IP hydrolysis was determined using the method of Schoepp and Johnson (1988). […] Half-maximal (EC50) values were determined from the mean (±S.D.) of seven point curves determined from three separate experiments.

## Clc1ccc(C#CCOc2nsnc2[C@H]2CN3CCC[C@H]2C3)cc1 [Compound 44, Exo (5R,6R)-6-(3-(3-(4-Chlorophenyl)-2-propyn-1-yloxy)-1,2,5-thiadiazol-4-yl)-1-azabicyclo[3.2.1]octane, (+)-tartrate]
  Emax: 81%
read-out: EC50
  EC50: 32 nM

## COc1cccc(C#CC(Oc2nsnc2[C@H]2CN3CCC[C@H]2C3)C(C)C)c1 (stereo partly drawn) [Compound 45, Exo (5R,6R)-6-(3-(1-(3-Methoxyphenyl)-4-methyl-1-pentyn-3-yloxy)-1,2,5-thiadiazol-4-yl)-1-azabicyclo[3 2.1]octane, (+)-tartrate]
  Emax: 66%
read-out: EC50
  EC50: 8 nM

## CC(C#Cc1cccs1)Oc1nsnc1[C@H]1CN2CCC[C@H]1C2 (stereo partly drawn) [Compound 47, Exo (5R,6R)-6-(3-(3-(2-Thienyl)-1-methyl-2-propyn-1-yloxy)-1,2,5-thiadiazol-4-yl)-1-azabicyclo[3.2.1]octane, (+)-tartrate]
  Emax: 102%
read-out: EC50
  EC50: 102 nM

## CC(C#Cc1ccsc1)Oc1nsnc1[C@H]1CN2CCC[C@H]1C2 (stereo partly drawn) [Compound 48, Exo (5R,6R)-6-(3-(3-(3-Thienyl)-1-methyl-2-propyn-1-yloxy)-1,2,5-thiadiazol-4-yl)-1-azabicyclo[3.2.1]octane, (+)-tartrate]
  Emax: 96%
read-out: EC50
  EC50: 7 nM

## C(#Cc1cccs1)COc1nsnc1[C@H]1CN2CCC[C@H]1C2 [Compound 49, Exo (5R,6R)-6-(3-[3-(2-Thienyl)-2-propyn-1-yloxy]-1,2,5-thiadiazol-4-yl)-1-azabicyclo[3 2 1]octane, oxalate]
  Emax: 100%
read-out: EC50
  EC50: 0.7 nM

## C(#Cc1ccsc1)COc1nsnc1[C@H]1CN2CCC[C@H]1C2 [Compound 50, Exo (5R,6R)-6-(3-[3-(3-Thienyl)-2-propyn-1-yloxy]-1,2,5-thiadiazol-4-yl)-1-azabicyclo[3.2.1]octane, oxalate]
  Emax: 101%
read-out: EC50
  EC50: 2 nM

## O=C1CCCN1CC#CCN1CCCC1 [oxotremorine, reference compound]
EC50, nM
  EC50: 16300 nM
